The values below come from PubChem BioAssay AID449750 (Broad Institute, 2010).

Molecules are shown by their SMILES. The source made the active and inactive calls. How the calls were made is not given here.

The assay is described as follows: non-covalent RecA intein splicing inhibitors, dose response, biochemical, cell-free, fluorescence, secondary screen (AID 449750).

One may read the AC50 as the midpoint of the concentration-response curve, whichever way the signal moves. Take `COc1cc(C2C(C#N)=C(N)Oc3n[nH]c(C)c32)ccc1OC(=O)c1ccccc1` (stereo not drawn): the AC50 was > 38 µM (inactive).

As to `Cc1[nH][nH]c(=O)c1C(c1ccc(N(C)C)c(Br)c1)c1c(C)[nH][nH]c1=O`, the AC50 is 38.7 µM. As for `Cn1c(SCC(=O)NCC2CCCO2)ncc(C(=O)Nc2ccc(Cl)cc2)c1=O` (stereo not drawn), the AC50 is > 38 µM (inactive). As to `Cc1cc(C(c2ccc(O)cc2)c2cc(C)c(O)cc2C)c(C)cc1O`, the AC50 is 4.95 µM. In the case of `Cc1c(C)n(O)c2ccc3nonc3c12`, the AC50 was 26.8 µM. The result for `CN(N)C(=S)Nc1ccc(Cl)cc1` reads > 38 µM (inactive); that for `CNC1=C(N(C(C)=O)c2ccc(Br)cc2)C(=O)c2ccccc2C1=O`, 2.43 µM. With `COc1ccc(N2C(=O)C(Cl)=C(Oc3cccc(OC)c3)C2=O)cc1`, the AC50 was > 38 µM (inactive).

`CCc1[nH]nc2c1C1(CCN(C(=O)c3ccccc3)CC1)C(C#N)=C(N)O2`: the concentration at half-maximal activity (AC50) was 25 µM.

Regarding `COc1ccc(N(C(=O)c2ccco2)S(=O)(=O)c2cccs2)cc1`, the AC50 is > 38 µM (inactive). In the case of `O=C(C(=C1N(Cc2ccc(Cl)nc2)CCN1Cc1ccc(Cl)nc1)[N+](=O)[O-])C(Cl)Cl`, the AC50 is > 38 µM (inactive). The result for `COC(=O)c1c(NC(=O)/C=C/C(=O)O)sc(Cc2ccccc2)c1C` reads 2.33 µM.

As for `Cc1ccc(-c2[nH]nc3c2C(C)C(C#N)=C(N)O3)cc1` (stereo not drawn), the AC50 was > 38 µM (inactive).

In the case of `CCOC(=O)c1nn(-c2ccc(OC)cc2)c(=O)c2c(N)scc12`, the AC50 was > 38 µM (inactive).

Consider `COc1ccc(N(C(=O)CCl)C(C(=O)NCCc2ccccc2)c2cccs2)cc1Cl` (stereo not drawn), for which the AC50 is 0.672 µM.

Take `Cc1ccc(S(=O)(=O)/N=C2\C=C(Nc3cccc(C(=O)O)c3)C(=O)c3ccccc32)cc1`: the AC50 is 0.412 µM. `Cc1[nH][nH]c(=O)c1[C@@H](c1ccccc1[N+](=O)[O-])C(C#N)C#N`: the AC50 was > 38 µM (inactive). With `COc1cc(C(=O)CSc2nnc(-c3ccc(O)cc3)n2CC2CCCO2)ccc1NC(C)=O` (stereo not drawn), the AC50 is > 38 µM (inactive). The result for `NC(=O)C1CCN(C2=C(Cl)C(=O)c3ccccc3C2=O)CC1` reads 1.97 µM; that for `CC1=NN(c2ccc(N)cc2)C(=O)C1`, 3.44 µM; that for `O=C(CCl)N1c2ccccc2OCC1c1ccccc1` (stereo not drawn), 12.7 µM. For `CCc1nnc(NC(=O)c2nc(S(=O)(=O)Cc3ccccc3)ncc2Cl)s1`, the AC50 was 31.2 µM.

In the case of `COc1ccc(C2C(O)C(c3c[nH]c4ccccc34)=NN2C(=O)CCl)cc1` (stereo not drawn), the AC50 was 1.22 µM. For the molecule `CN1c2ccc(C=O)c3c(C=O)ccc(c23)N(C)C1(C)C`, the AC50 is > 38 µM (inactive).

For the molecule `O=[N+]([O-])c1cc([N+](=O)[O-])c2c(=Nc3ccccc3)n(-c3ccccc3)n(O)c2c1`, the AC50 is 21.7 µM.

On to `CCCC(=O)N(C1CC(C)C(C#N)(C#N)C1(C#N)C#N)N(C)C` (stereo not drawn), for which the AC50 was > 38 µM (inactive). In the case of `CCCCn1c(NC(=O)c2ccc(Br)o2)c(S(=O)(=O)c2ccccc2)c2nc3ccccc3nc21`, the AC50 was > 38 µM (inactive). As to `CCCc1c(-c2ccc(O)cc2)nn(-c2ccc(O)cc2)c1-c1ccc(O)cc1`, the AC50 was 4.37 µM. Take `CCn1c(COc2cccc3ccccc23)nnc1SCC(N)=O`: the AC50 is > 38 µM (inactive). As to `CC(=O)Nc1cc(OC(=O)c2ccco2)cc(OC(=O)c2ccco2)c1`, the AC50 was 11.8 µM. Turning to `COCc1[nH]nc2c1C(c1ccc(OC)c(OC)c1)C(C#N)=C(N)O2` (stereo not drawn), the AC50 was > 38 µM (inactive).

In the case of `CC(=O)Oc1c(Br)cc(N(C(C)=O)S(=O)(=O)c2ccccc2)c2ccccc12`, the AC50 was 8.88 µM.

With `COc1ccc(C(C[N+](=O)[O-])c2c(C)[nH]n(-c3ccccc3)c2=O)cc1` (stereo not drawn), the AC50 is 2.8 µM.

Consider `CC(=O)Oc1ccc2ccccc2c1C(NC(=O)Cc1ccccc1)c1ccc(Cl)cc1` (stereo not drawn), for which the AC50 is 4.04 µM. With `COC(=O)C[C@]1(C(=O)OC)CN(C#N)N(c2ccc(Cl)cc2)C12c1ccccc1-c1ccccc12`, the AC50 was 14.3 µM. Consider `CNCc1ccccc1Sc1ccc(O)c(O)c1`, for which the AC50 is > 38 µM (inactive). Take `COc1ccc(N(C(=O)COc2cccc(C)c2)S(=O)(=O)c2ccc(C)cc2)cc1`: the AC50 was > 38 µM (inactive).

Regarding `C/C(=C\c1ccco1)C1C(C#N)=C(N)Oc2n[nH]c(-c3ccccc3)c21` (stereo not drawn), the AC50 was 20.8 µM. In the case of `COc1ccc(CC(=O)O/N=C(\N)Cc2cccc3ccccc23)cc1OC` it was > 38 µM (inactive). For the molecule `O=S(=O)(Nc1c(O)ccc2ccccc12)c1ccc(F)cc1`, the AC50 was 13.3 µM.

For `C#CC(=O)N(c1cc(OC)ccc1OC)C(C(=O)NC1CCCC1)c1cccs1` (stereo not drawn), the AC50 was 2.35 µM.

For `O=[N+]([O-])c1ccc(O)c2ncccc12`, the AC50 is 6.6 µM. For the molecule `COc1cc(C2C(C#N)=C(N)Oc3n[nH]c(C)c32)cc2c1OCO2` (stereo not drawn), the AC50 was 8.43 µM. `Cc1ccc(C2C(C#N)=C(N)Oc3n[nH]c(-c4cccs4)c32)s1` (stereo not drawn): the AC50 is 3.32 µM. On to `CCN(CC)c1ccc2c(c1)CCCN2`, for which the AC50 was > 12 µM (inactive).

In the case of `CC1=CC2(O)OCCN(CCO)C2=CC1=O` (stereo not drawn), the AC50 is 13.5 µM. With `CCCNC1=C(N(C(C)=O)c2cccc(F)c2)C(=O)c2ccccc2C1=O`, the AC50 was 3.72 µM. On to `CC(C)C[C@H](N)c1nnc(S(=O)(=O)Cc2ccc(F)cc2)o1`, for which the AC50 was > 38 µM (inactive). On to `CC[C@@H](CO)NC(=O)[C@@H]1C=C2c3cccc4c3c(cn4C)C[C@H]2N(C)C1`, for which the AC50 was > 38 µM (inactive). On to `COc1ccccc1-n1nnnc1S(=O)(=O)Cc1ccc(Cl)cc1`, for which the AC50 was > 38 µM (inactive). As to `COc1cccc(C(=O)Nc2nc(SCc3ccc(Cl)cc3)n[nH]2)c1`, the AC50 is > 38 µM (inactive).

For `CC1=NN(c2ccccc2)C(=O)/C1=C/c1c(O)n(-c2ccc(F)c(Cl)c2)[nH]c1=O`, the AC50 is 10.3 µM. As for `Cc1ccc(S(=O)(=O)Oc2ccc(C(c3c(C)[nH][nH]c3=O)c3c(C)[nH][nH]c3=O)cc2)cc1`, the AC50 is 2.22 µM. The result for `CCO/C=C1/C(=O)N(Cc2ccccc2)C(=O)c2ccccc21` reads > 38 µM (inactive). `CCc1ccc(S(=O)(=O)/N=C2\C=C(Nc3ccc(O)cc3)C(=O)c3ccccc32)cc1`: the AC50 was 0.56 µM. Turning to `COc1ccc(-c2cc(C(F)(F)F)nc(S(=O)(=O)CCCC(=O)Nc3cccc(O)c3)n2)cc1OC`, the AC50 was > 38 µM (inactive). For the molecule `CCOc1ccc2c(c1)C(NC(C)=O)C(=O)N2CCN1CCOCC1` (stereo not drawn), the AC50 is 34.2 µM. As for `CCc1ccc(S(=O)(=O)Nc2cc(SCC(=O)O)c(O)c3ccccc23)cc1`, the AC50 is 3.06 µM. As to `O=C1/C(=C\c2cc([N+](=O)[O-])ccc2O)SC(=S)N1Cc1ccc(Cl)cc1`, the concentration at half-maximal activity (AC50) is 13.8 µM. Turning to `CC(=O)NC1C(=O)N(CCN2CCOCC2)c2ccc(Cl)cc21` (stereo not drawn), the AC50 is 34.1 µM. Consider `CC1=C(C)/C(=N\OS(=O)(=O)c2ccccc2)C=CC1=O`, for which the AC50 was > 38 µM (inactive).

Regarding `CNC(=O)c1nnsc1S(=O)c1ccc(Cl)cc1` (stereo not drawn), the AC50 was > 38 µM (inactive).

Take `O=C(Cc1ccccc1)c1c[nH]c(C(=O)C(Cl)(Cl)Cl)c1`: the AC50 was 38.1 µM. For `CCCCCCCCCCCCCCCC[N+](C)(C)CC`, the AC50 was 10.9 µM. In the case of `CCN(CC)C(=O)c1ccc2c(c1)C1C(Cl)C(Sc3ccccc3[N+](=O)[O-])CC1C(C(=O)O)N2` (stereo not drawn) it was 12.5 µM.

Turning to `O=C(Oc1ccc(-n2cnnn2)cc1)c1ccco1`, the AC50 was > 38 µM (inactive).

As for `COc1cc(/C=C2\C(=O)N(CCC#N)N=C2C)ccc1OCC(=O)Nc1ccccc1`, the AC50 was 8.37 µM. For the molecule `CC1=NNC(=O)/C1=C\c1cn(-c2ccccc2)nc1-c1ccc(F)cc1`, the AC50 was 12 µM.

As for `COc1cc(/C=C(\C#N)c2nc3ccccc3o2)ccc1O`, the AC50 was > 38 µM (inactive). The result for `Cc1noc2ncnc(Sc3ccc(Br)cc3)c12` reads 13.5 µM. The result for `COc1ccc(S(=O)(=O)Nc2c(O)ccc3ccccc23)cc1OC` reads 22.9 µM.

As to `COC(=O)c1ccc(-n2c(C)cc(C(=O)CCl)c2C)cc1`, the AC50 was 17.8 µM.

On to `CC(c1ccc(O)cc1)(c1ccc(O)cc1)c1ccc(CCBr)cc1`, for which the AC50 was 11.8 µM. For `COc1ccc(-c2csc(CCN3N=C(C)CC3=O)n2)cc1`, the AC50 was 10.1 µM. Consider `O=C1c2ccccc2C(=O)c2c1oc(C(F)(F)F)c2C(=O)c1ccccc1`, for which the AC50 is > 38 µM (inactive). As to `Cc1[nH][nH]c(=O)c1C(c1ccc(O)c(Br)c1)c1c(C)[nH][nH]c1=O`, the AC50 is 13.5 µM. Regarding `Cn1c2ccccc2c2cc(C(=O)NNC(=O)CCl)sc21`, the AC50 is 16.2 µM. Consider `COc1cc(C(c2c(C)[nH][nH]c2=O)c2c(C)[nH][nH]c2=O)cc(Cl)c1O`, for which the AC50 was 2.2 µM. The result for `Cc1cc(=O)n(-c2ccccc2Cl)[nH]1` reads 22.3 µM; that for `O=C(NNC(=O)c1ccc([N+](=O)[O-])o1)c1ccccc1`, 33.6 µM.

On to `CC1=NNC(=O)C1Cc1ccccc1C` (stereo not drawn), for which the AC50 is > 38 µM (inactive). `Cc1c(C#N)c(NC(=O)CCl)n(Cc2ccccc2)c1C`: the AC50 was 7.6 µM. For `CCCc1[nH]nc2c1C(c1ccc(OC(=O)c3ccco3)cc1)C(C#N)=C(N)O2` (stereo not drawn), the AC50 is > 38 µM (inactive). In the case of `Cc1ccc(C2CC(c3cccs3)=NN2C(=O)CCl)cc1` (stereo not drawn) it was 1.68 µM; in that of `CCCC(=O)OCCNc1cc(Sc2nccn2C)c2nonc2c1[N+](=O)[O-]`, > 38 µM (inactive). On to `Cc1ccc(NC(=O)c2sc3ncnc(N4CCN(c5ccccn5)CC4)c3c2C)c(C)c1`, for which the AC50 was > 38 µM (inactive).

Turning to `CC(=O)n1cc(N(C(=O)CCl)c2ccccc2)c2ccccc21`, the AC50 was 3.56 µM. The result for `CC(C)(C)c1cc[n+](C2=C([O-])c3ccccc3C(=O)/C2=N\S(=O)(=O)c2ccccc2)cc1` reads 9.74 µM; that for `CC(C)(C)C1CCc2sc(C(=O)NNC(=O)CCl)cc2C1` (stereo not drawn), 1.94 µM; that for `COC(=O)c1sc(N)c(C(=O)OC)c1Cn1ncc(Cl)c(Cl)c1=O`, > 38 µM (inactive). As for `Cc1ccc(-c2csc(NC(=O)CSC3=NCCS3)n2)cc1`, the AC50 was 19.1 µM. As for `CC(=O)N(c1ccccc1)C(C)c1nc(C#N)c(C#N)nc1C` (stereo not drawn), the AC50 is > 38 µM (inactive). In the case of `CN1CCN(Cc2cc(=O)oc3ccc(Cl)cc23)CC1`, the AC50 was > 38 µM (inactive).
